Tested on: transgenic SREBP-1c model of NASH
Test: Transgenic SREBP-1c model of NASH
Type: in vivo, mice
Details: 10 mg/kg/day p.o.
Experimental: The ability of IGP001 and IGP002 are tested in the transgenic SREBP-1c model of NASH. SREBP-1c is a lipogenic transcription factor, and overexpression creates a model of congenital lipodystrophy in which severe insulin resistance and diabetes develop secondary to impaired adipose differentiation (Shimomura I et al., Genes Dev 1998; 12: 3182-3194). In these mice, decreased fat tissue with lipid accumulation in the liver is observed, and marked hepatic steatosis occurs by […] of age. When fed a standard diet, steatosis, lobular inflammation, and perivenular and pericellular fibrosis develop at 20 weeks (Nakayama H, et al., Metabolism 2007; 56: 470-475; Takahashi Y, World J Gastroenterol. 2012 May 21; 18(19): 2300-2308).

O=C(Cn1c(=O)ccc2cc(C(F)(F)F)ccc21)Nc1scc(Br)c1-c1nnc[nH]1 [IGP001, N-(4-bromo-3-(1H-1,2,4-triazol-5-yl)thiophen-2-yl)-2-(2-oxo-6-(trifluoromethyl)quinolin-1(2H)-yl)acetamide]
collagen deposition: significant reductions in collagen deposition
collagen type 1 protein and mRNA expression: significant reductions in collagen deposition, and collagen type 1 protein and mRNA expression

From patent US20190231751A1, “TREATMENT OF FIBROTIC DISORDERS WITH JUN N-TERMINAL KINASE INHIBITORS” (Imago Pharmaceuticals, Inc., priority 2016, published 2019)
